Test results: ChEMBL document CHEMBL3046817, “The synthesis and investigation of the antimicrobial activity of some new phenylselanyl-1-(toluene-4-sulfonyl)-1H-tetrazole derivatives” (2009)
Calls of active or inactive are those of the source. The calls are words filed in the database; no cut-off is given here.

Columns and labels:
Listeria monocytogenes [1] = test: Antimicrobial activity against Listeria monocytogenes ATCC 7644 measured after overnight incubation by disk diffusion method; type: functional
Salmonella enteritidis [2] = test: Antimicrobial activity against Salmonella enterica subsp. enterica serovar Enteritidis ATCC 13076 measured after overnight incubation by disk diffusion method; type: functional
Escherichia coli [3] = conditions: ATCC 11230
Description: Antimicrobial activity against Escherichia coli ATCC 11230 measured after overnight incubation by disk diffusion method

Pseudomonas aeruginosa [4] = test: Antimicrobial activity against Pseudomonas aeruginosa ATCC 27853 measured after overnight incubation by disk diffusion method; type: functional
Bacillus cereus [5] = test: Antimicrobial activity against Bacillus cereus RSKK 863 measured after overnight incubation by disk diffusion method; type: functional, organism-based
Yersinia enterocolitica [6] = test: Antimicrobial activity against Yersinia enterocolitica ATCC 1501 measured after overnight incubation by disk diffusion method; type: functional
Staphylococcus aureus [7] = test: Antimicrobial activity against Staphylococcus aureus ATCC 25923 measured after overnight incubation by disk diffusion method; type: functional, organism-based
Pseudomonas aeruginosa [8] = test: Antimicrobial activity against Pseudomonas aeruginosa ATCC 27853 at 25 ug/disk measured after overnight incubation by disk diffusion method; type: functional
Listeria monocytogenes [9] = test: Antimicrobial activity against Listeria monocytogenes ATCC 7644 at 25 ug/disk measured after overnight incubation by disk diffusion method; type: functional
Bacillus cereus [10] = test: Antimicrobial activity against Bacillus cereus RSKK 863 at 25 ug/disk measured after overnight incubation by disk diffusion method; type: functional; conditions: for zone of inhibition at 25 µg/disc: read-out: IZ
Staphylococcus aureus [11] = test: Antimicrobial activity against Staphylococcus aureus ATCC 25923 at 25 ug/disk measured after overnight incubation by disk diffusion method; type: functional; conditions: for zone of inhibition at 25 µg/disc: read-out: IZ
Salmonella enteritidis [12] = test: Antimicrobial activity against Salmonella enterica subsp. enterica serovar Enteritidis ATCC 13076 at 25 ug/disk measured after overnight incubation by disk diffusion method; type: functional; conditions: read-out: IZ
Escherichia coli [13] = test: Antimicrobial activity against Escherichia coli ATCC 11230 at 25 ug/disk measured after overnight incubation by disk diffusion method; type: functional; conditions: read-out: IZ
Yersinia enterocolitica [14] = test: Antimicrobial activity against Yersinia enterocolitica ATCC 1501 at 25 ug/disk measured after overnight incubation by disk diffusion method; type: functional; conditions: for zone of inhibition at 25 µg/disc: read-out: IZ

| Compound | inhibition zone (IZ) (Listeria monocytogenes [1]) | inhibition zone (IZ) (Salmonella enteritidis [2]) | IZ (Escherichia coli [3]) | inhibition zone (IZ) (Pseudomonas aeruginosa [4]) | inhibition zone (IZ) (Bacillus cereus [5]) | inhibition zone (IZ) (Yersinia enterocolitica [6]) | inhibition zone (IZ) (Staphylococcus aureus [7]) | zone of inhibition at 25 µg/disc (Pseudomonas aeruginosa [8]; read-out: IZ) | inhibition zone (IZ) (Listeria monocytogenes [9]) | zone of inhibition at 25 µg/disc (Bacillus cereus [10]) | zone of inhibition at 25 µg/disc (Staphylococcus aureus [11]) | zone of inhibition at 25 µg/disc (Salmonella enteritidis [12]) | zone of inhibition at 25 µg/disc (Escherichia coli [13]) | zone of inhibition at 25 µg/disc (Yersinia enterocolitica [14]) | inhibition zone (IZ) (Pseudomonas aeruginosa [8]) | inhibition zone (IZ) (Yersinia enterocolitica [14]) | inhibition zone (IZ) (Bacillus cereus [10]) | zone of inhibition at 25 µg/disc (Listeria monocytogenes [9]; read-out: IZ) | inhibition zone (IZ) (Staphylococcus aureus [11]) |
| --- | --- | --- | --- | --- | --- | --- | --- | --- | --- | --- | --- | --- | --- | --- | --- | --- | --- | --- | --- |
| Cc1ccnc(NS(=O)(=O)c2ccc(N)cc2)n1 [SULFAMERAZINE] | 5.1 mm | 6.6 mm | inactive | 4.4 mm | inactive | 6.1 mm | inactive | – | – | – | – | – | – | – | – | – | – | – | – |
| Cc1cc(NS(=O)(=O)c2ccc(N)cc2)no1 [SULFAMETHOXAZOLE] | 10.9 mm | 7.4 mm | – | 5.5 mm | inactive | inactive | inactive | – | – | – | – | – | – | – | – | – | – | – | – |
| Cc1ccc(S(=O)(=O)n2nnnc2[Se]c2ccccc2Cl)cc1 | – | – | – | – | – | – | – | 4.4 mm | inactive | 3.2 mm | 4.2 mm | 7 mm | 7.4 mm | 5.6 mm | – | – | – | – | – |
| Cc1ccc(S(=O)(=O)n2nnnc2[Se]c2ccccc2C)cc1 | – | – | – | – | – | – | – | – | inactive | 4.4 mm | 5.2 mm | 2.8 mm | 5.4 mm | – | inactive | inactive | – | – | – |
| Cc1ccc(S(=O)(=O)n2nnnc2[Se]c2ccc(Cl)cc2)cc1 | – | – | – | – | – | – | – | – | inactive | – | 4.8 mm | 7.8 mm | 3.2 mm | 3.4 mm | inactive | – | inactive | – | – |
| Cc1ccc(S(=O)(=O)n2nnnc2[Se]c2ccc(Br)cc2)cc1 | – | – | – | – | – | – | – | – | inactive | – | 6.2 mm | 8.2 mm | 5.4 mm | – | inactive | inactive | inactive | – | – |
| Cc1ccc(S(=O)(=O)n2nnnc2[Se]c2ccc(I)cc2)cc1 | – | – | – | – | – | – | – | – | inactive | – | 8.2 mm | 5.8 mm | 3.2 mm | – | inactive | inactive | inactive | – | – |
| Cc1ccc([Se]c2nnnn2S(=O)(=O)c2ccc(C)cc2)cc1 | – | – | – | – | – | – | – | – | – | 2.8 mm | – | 3.2 mm | 4.6 mm | – | inactive | inactive | – | 5 mm | inactive |
